Measurements taken from article PMC10007235 (Polymers, 2023).

What was measured:
[1] = design: method as in a previous report; settings: absence of polymer; ref a previous report; cited from earlier work
[2] = Nucleation induction time measurement from supersaturated solution; assay type: physicochemical; settings: for Nucleation induction time / Time high (supersaturated) concentration maintained: 25 °C
Method: HPLC was analyzed using a Dionex-Ultimate 3000 HPLC (Dionex, Sunnyvale, CA, USA) equipped with an Inertsil ODS C18 (6.0 × 150 mm) column at 35 °C. […] The samples were analyzed by injecting 10 μL at 244 nm using a UV detector. […] The linearity was evaluated by linear regression analysis calculated using the least-squares regression method. […] The experiment was performed in triplicate (mean values + SD). Each polymer (chitosan and HPMC) was dissolved in an aqueous solution at a concentration of 500 μg/mL.

Nucleation induction time ([2]; HPMC solution 500 μg/mL): 32 h
Nucleation induction time ([2]; absence of polymer (water)): 0.5 h
Nucleation induction time ([2]; chitosan solution 500 μg/mL): 24 h
Time high (supersaturated) concentration maintained ([2]; chitosan solution 500 μg/mL): 24 h
Time high (supersaturated) concentration maintained ([2]; water): 0.5 h
Enhancement in induction time ([2]; with chitosan and HPMC versus no polymer): 48–64 fold
Compound: CC(C)c1nc(CN(C)C(=O)N[C@H](C(=O)N[C@@H](Cc2ccccc2)C[C@H](O)[C@H](Cc2ccccc2)NC(=O)OCc2cncs2)C(C)C)cs1 [RTV, ritonavir]
Induction time [1]: 120 min
